This experiment concerns the target T1, P2X4 receptor (Homo sapiens, UniProt Q99571).
T1 construct: expressed in transfected cells; host or cells: 1321N1 astrocytoma cells, retroviral vector pQCXIN, G418 selection, monoclones
T1 sequence (Q99571 1-388): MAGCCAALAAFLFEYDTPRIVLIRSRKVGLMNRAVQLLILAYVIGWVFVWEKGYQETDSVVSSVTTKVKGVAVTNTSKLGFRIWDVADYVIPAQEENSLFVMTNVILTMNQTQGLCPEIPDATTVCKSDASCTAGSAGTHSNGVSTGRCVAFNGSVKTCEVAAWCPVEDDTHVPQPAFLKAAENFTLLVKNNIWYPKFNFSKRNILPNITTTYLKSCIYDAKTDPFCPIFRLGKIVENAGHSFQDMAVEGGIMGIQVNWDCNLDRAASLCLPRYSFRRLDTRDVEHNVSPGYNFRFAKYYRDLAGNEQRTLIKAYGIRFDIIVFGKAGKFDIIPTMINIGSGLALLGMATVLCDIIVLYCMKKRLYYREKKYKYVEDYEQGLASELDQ
Description: Measurement of Ca2+ influx in transfected 1321N1 astrocytoma cells (P2X4 inhibitory potency). It is filed as cell-based. The note with it: agonist-mediated Ca2+ influx, FLUO-4, 1321N1 astrocytoma cells; antagonists added 30 min before agonist. From the text:
The rat, mouse, and human P2X4 DNA, respectively, were cloned into the retroviral vector pQCXIN. 1321N1 Astrocytoma cells were transfected with the DNA using a retroviral system as described previously. In brief, GP+envAM12 packaging cells were first transiently co-transfected with a retroviral vector to generate the retrovirus and with a vesicular stomatitis virus G protein (VSV-G) to pseudotype the virus and to increase their infection efficiency. The viruses containing the rat, mouse or human P2X4 receptor sequence were then used to create a stable astrocytoma cell line. P2X4 receptor-expressing cells were selected with G418 ([…]).
The selection of monoclones for rat and human P2X4 receptors was performed using the limited dilution method by plating the cells at very low cell densities (1 cell clone per well in 96-well plates). Cells were counted, and then several dilutions were made to obtain a concentration of […]. We subsequently added 100 µL of the diluted cell suspension into each well expecting to obtain on average 1 cell per well. After a few days the wells that contained single clones were labeled and transferred into 24 well plates. More than 20 clones were selected for each cell line and characterized in calcium influx assay.
Measurement of Ca^2+ influx in transfected 1321N1 astrocytoma cells
P2X receptor function was determined on the basis of agonist-mediated increases in cytosolic Ca^2+ concentration. The fluorescent Ca^2+chelating dye FLUO-4 was used as an indicator of the relative levels of intracellular Ca^2+ in a 96-well format using a fluorescence imaging plate reader (Novostar, BMG, Germany). Cells were grown to confluence in 96-well black-walled tissue culture plates and loaded with FLUO-4 AM ([…]) in Hank's balanced salt solution (HBSS, containing 10 mM HEPES, pH 7.3, and 1% Pluronic® F127) for 1 h at 23° C. After incubation, the loaded cells were washed with the same buffer to remove extracellular FLUO-4 AM. Compound solutions were prepared in HBSS (containing 20 mM HEPES, pH 7.3) or DMSO depending on their solubility. […] Fluorescence intensity was measured at 520 nm for 30 s at 0.4 s intervals. Buffer or test compounds were injected sequentially into separate wells using the automatic pipetting device. At least three independent experiments were performed in triplicate or duplicate. Antagonists were added 30 min before the addition of agonists. The assays were performed in a final volume of 200 μL. Compounds were tested at 7-8 different concentrations spanning three orders of magnitude of concentrations. Statistical significances were calculated using the unpaired two-tailed t-test.

Our source for the IC50 values is patent US20260209215A1, “GLYCINE DERIVATIVES WITH P2X4 RECEPTOR-BLOCKING ACTIVITY AS DIAGNOSTICS AND FOR THE TREATMENT OF PAIN, INFLAMMATION, CANCER, AND OTHER P2X4 RECEPTOR-RELATED DISEASES” (RHEINISCHE-FRIEDRICH-WILHELMS-UNIVERSITÄT BONN, priority 2022, published 2026).

What is called IC50 is the point on the concentration scale where inhibition reaches its midpoint. Turning to `Cc1ccc(-c2ccc(C)c(NCC(=O)N3CCc4c3cccc4N3C4CCC3CC(O)C4)c2)o1` (centres unmarked) [Example 36, 1-(4-(3-hydroxy-8-azabicyclo[3.2.1]octan-8-yl)indolin-1-yl)-2-((2-methyl-5-(5-methylfuran-2-yl)phenyl)amino)ethan-1-one], the half-maximal inhibitory concentration (IC50) lay in the range of 20 to 39 nM.
`CC(=O)c1cccc2c1CCN2C(=O)CNc1cc(-c2nc(C)ns2)ccc1C` [Example 37, 1-(4-acetylindolin-1-yl)-2-((2-methyl-5-(3-methyl-1,2,4-thiadiazol-5-yl)phenyl)amino)ethan-1-one] gave a 50% inhibitory concentration (IC50) of 20 to 39 nM.
The result for `Cc1ccc(-c2nc(C3CC3)ns2)cc1NCC(=O)N1CCc2c(OCC(C)(C)O)cccc21` [Example 38, 2-((5-(3-cyclopropyl-1,2,4-thiadiazol-5-yl)-2-methylphenyl)amino)-1-(4-(2-hydroxy-2-methylpropoxy)-indolin-1-yl)ethan-1-one] reads 20 to 39 nM; that for `O=C(CNc1cc(-c2nc(Cl)ns2)ccc1Cl)N1CCc2c(O)cccc21` [Example 39, 2-((2-chloro-5-(3-chloro-1,2,4-thiadiazol-5-yl)phenyl)amino)-1-(4-hydroxyindolin-1-yl) ethan-1-one], 20 to 39 nM.
`Cc1ccc(-c2nc(C(F)F)ns2)cc1NCC(=O)N1CCc2c1cccc2C(C)(C)O` [Example 40, 2-((5-(3-(difluoromethyl)-1,2,4-thiadiazol-5-yl)-2-methylphenyl)amino)-1-(4-(2-hydroxypropan-2-yl)indolin-1-yl) ethan-1-one]: the 50% inhibitory concentration (IC50) fell in the range of 20 to 39 nM.
Next, `Cc1noc(-c2ccc(F)c(NCC(=O)N3CCc4c(C(O)C(F)(F)F)cccc43)c2)n1` (centres unmarked) [Example 41, 2-((2-fluoro-5-(3-methyl-1,2,4-oxadiazol-5-yl)phenyl)amino)-1-(4-(2,2,2-trifluoro-1-hydroxyethyl)indolin-1-yl)ethan-1-one]: 20 to 39 nM; `COc1ccc2c(n1)CCN2C(=O)CNc1cc(-c2nc(C)ns2)ccc1C` [Example 42, 1-(5-methoxy-2,3-dihydro-1H-pyrrolo[3,2-b]pyridin-1-yl)-2-((2-methyl-5-(3-methyl-1,2,4-thiadiazol-5-yl)phenyl)-amino)ethan-1-one]: 20 to 39 nM.
`Cc1ccc(-c2ccc(F)c(NCC(=O)N3CCc4c(OCC(C)(C)O)cccc43)c2)o1` [Example 43, 2-((2-fluoro-5-(5-methylfuran-2-yl)phenyl)amino)-1-(4-(2-hydroxy-2-methylpropoxy)-indolin-1-yl)ethan-1-one] returned a half-inhibitory concentration (IC50) of 20 to 39 nM.
In the case of `Cc1nsc(-c2ccc(C)c(NCC(=O)N3CCc4c(NCC(C)(C)O)cccc43)c2)n1` [Example 44, 1-(4-((2-hydroxy-2-methylpropyl)amino)indolin-1-yl)-2-((2-methyl-5-(3-methyl-1,2,4-thiadiazol-5-yl)phenyl)-amino)ethan-1-one], the half-inhibitory concentration (IC50) fell in the range of 20 to 39 nM.
Next, `CCc1nsc(-c2ccc(C)c(NCC(=O)N3CCc4c(C(=O)N5CCN(C)CC5)cccc43)c2)n1` [Example 45, 2-((5-(3-ethyl-1,2,4-thiadiazol-5-yl)-2-methylphenyl)amino)-1-(4-(4-methylpiperazine-1-carbonyl)indolin-1-yl) ethan-1-one]: 20 to 39 nM; `Cc1nsc(-c2ccc(C)c(NCC(=O)N3CCc4c(NS(C)(=O)=O)cccc43)c2)n1` [Example 46, N-(1-((2-methyl-5-(3-methyl-1,2,4-thiadiazol-5-yl)phenyl)glycyl)indolin-4-yl)methanesulfonamide]: 20 to 39 nM; `Cc1noc(-c2ccc(C)c(NCC(=O)N3CCc4c(OCCC(C)(C)O)cccc43)c2)n1` [Example 47, 1-(4-(3-hydroxy-3-methylbutoxy)indolin-1-yl)-2-((2-methyl-5-(3-methyl-1,2,4-oxadiazol-5-yl)phenyl)amino)ethan-1-one]: 20 to 39 nM.
Consider `Cc1nsc(-c2ccc(C)c(NCC(=O)N3CCc4c3cccc4-n3ccnc3)c2)n1` [Example 48, 1-(4-(1H-imidazol-1-yl)indolin-1-yl)-2-((2-methyl-5-(3-methyl-1,2,4-thiadiazol-5-yl)phenyl)amino)ethan-1-one], for which the IC50 was 20 to 39 nM.
The result for `Cc1noc(-c2ccc(C)c(NCC(=O)N3CCc4c(OCC(C)(C)O)cccc43)c2)n1` [Example 49, 1-(4-(2-hydroxy-2-methylpropoxy)indolin-1-yl)-2-((2-methyl-5-(3-methyl-1,2,4-oxadiazol-5-yl)phenyl)amino)ethan-1-one] reads 40 to 69 nM.
With `Cc1ccc(-c2nc(C3CC3)no2)cc1NCC(=O)N1CCc2c(OCC(C)(C)O)cccc21` [Example 50, 2-((5-(3-cyclopropyl-1,2,4-oxadiazol-5-yl)-2-methylphenyl)amino)-1-(4-(2-hydroxy-2-methylpropoxy)-indolin-1-yl)ethan-1-on], the half-maximal inhibitory concentration (IC50) was in the range of 40 to 69 nM.
The result for `Cc1nsc(-c2ccc(C)c(NCC(=O)N3CCc4c3cccc4S(N)(=O)=O)c2)n1` [Example 51, 1-((2-methyl-5-(3-methyl-1,2,4-thiadiazol-5-yl)phenyl)glycyl)-indoline-4-sulfonamide] reads 40 to 69 nM; that for `Cc1nsc(-c2ccc(C)c(NCC(=O)N3CCc4ccccc43)c2)n1` [Example 52, 1-(indolin-1-yl)-2-((2-methyl-5-(3-methyl-1,2,4-thiadiazol-5-yl)phenyl)amino)ethan-1-one], 40 to 69 nM.
The result for `Cc1noc(-c2ccc(F)c(NCC(=O)N3CCc4c3cccc4C(C)(C)O)c2)n1` [Example 53, 2-((2-fluoro-5-(3-methyl-1,2,4-oxadiazol-5-yl)phenyl)amino)-1-(4-(2-hydroxypropan-2-yl)-indolin-1-yl)ethan-1-one] reads 20 to 39 nM; that for `Cc1nsc(-c2ccc(C)c(NCC(=O)N3CCc4c3cccc4N3CC(=O)NC3=O)c2)n1` [Example 54, 1-(1-((2-methyl-5-(3-methyl-1,2,4-thiadiazol-5-yl)phenyl)glycyl)indolin-4-yl) imidazolidine-2,4-dione], 70 to 99 nM.
`Cc1nsc(-c2ccc(C)c(NCC(=O)N3CCc4c3cccc4C3(O)COC3)c2)n1` [Example 55, 1-(4-(3-hydroxyoxetan-3-yl)indolin-1-yl)-2-((2-methyl-5-(3-methyl-1,2,4-thiadiazol-5-yl)phenyl)amino)ethan-1-one]: the 50% inhibitory concentration (IC50) lay in the range of 0.1 to 19 nM.
Next, `CCc1nsc(-c2ccc(F)c(NCC(=O)N3CCc4c(N5CC(O)C5)cccc43)c2)n1` [Example 56, 2-((5-(3-ethyl-1,2,4-thiadiazol-5-yl)-2-fluorophenyl)amino)-1-(4-(3-hydroxyazetidin-1-yl)indolin-1-yl)ethan-1-one]: 0.1 to 19 nM; `COC(=O)C1CN(C(=O)CNc2cc(-c3nc(C)ns3)ccc2C)c2ccccc21` (centres unmarked) [Example 57, methyl 1-((2-methyl-5-(3-methyl-1,2,4-thiadiazol-5-yl)-phenyl)glycyl)indoline-3-carboxylate]: above 100 nM; `Cc1nsc(-c2ccc(C)c(NCC(=O)N3CC(CCO)c4ccccc43)c2)n1` (centres unmarked) [Example 58, 1-(3-(2-hydroxyethyl)indolin-1-yl)-2-((2-methyl-5-(3-methyl-1,2,4-thiadiazol-5-yl)phenyl)amino)ethan-1-one]: above 100 nM.
Next, `CNC(=O)C1CN(C(=O)CNc2cc(-c3nc(C)ns3)ccc2C)c2ccccc21` (centres unmarked) [Example 59, N-methyl-1-((2-methyl-5-(3-methyl-1,2,4-thiadiazol-5-yl)phenyl)glycyl) indoline-3-carboxamide]: above 100 nM; `Cc1noc(-c2ccc(F)c(NCC(=O)N3CCc4c3cccc4C(C)(O)CO)c2)n1` (centres unmarked) [Example 60, 1-(4-(1,2-dihydroxypropan-2-yl)indolin-1-yl)-2-((2-fluoro-5-(3-methyl-1,2,4-oxadiazol-5-yl)phenyl)amino)ethan-1-one]: 40 to 69 nM.
As to `Cc1ccc(-c2nc(C(F)F)ns2)cc1NCC(=O)N1CCc2c1cccc2C(C)(O)CO` (centres unmarked) [Example 61, 2-((5-(3-(difluoromethyl)-1,2,4-thiadiazol-5-yl)-2-methylphenyl)amino)-1-(4-(1,2-dihydroxypropan-2-yl)indolin-1-yl)ethan-1-one], the 50% inhibitory concentration (IC50) lay in the range of 0.1 to 19 nM.
